This is an account of results in patent publication US20190048016A1, “SUBSTITUTED BRIDGED UREA ANALOGS AS SIRTUIN MODULATORS” (GlaxoSmithKline Intellectual Property(No.2)Limited, priority 2014, published 2019).

The target in this test is T1, SIRT1 (Homo sapiens, UniProt Q96EB6).
T1 sequence (Q96EB6 1-747): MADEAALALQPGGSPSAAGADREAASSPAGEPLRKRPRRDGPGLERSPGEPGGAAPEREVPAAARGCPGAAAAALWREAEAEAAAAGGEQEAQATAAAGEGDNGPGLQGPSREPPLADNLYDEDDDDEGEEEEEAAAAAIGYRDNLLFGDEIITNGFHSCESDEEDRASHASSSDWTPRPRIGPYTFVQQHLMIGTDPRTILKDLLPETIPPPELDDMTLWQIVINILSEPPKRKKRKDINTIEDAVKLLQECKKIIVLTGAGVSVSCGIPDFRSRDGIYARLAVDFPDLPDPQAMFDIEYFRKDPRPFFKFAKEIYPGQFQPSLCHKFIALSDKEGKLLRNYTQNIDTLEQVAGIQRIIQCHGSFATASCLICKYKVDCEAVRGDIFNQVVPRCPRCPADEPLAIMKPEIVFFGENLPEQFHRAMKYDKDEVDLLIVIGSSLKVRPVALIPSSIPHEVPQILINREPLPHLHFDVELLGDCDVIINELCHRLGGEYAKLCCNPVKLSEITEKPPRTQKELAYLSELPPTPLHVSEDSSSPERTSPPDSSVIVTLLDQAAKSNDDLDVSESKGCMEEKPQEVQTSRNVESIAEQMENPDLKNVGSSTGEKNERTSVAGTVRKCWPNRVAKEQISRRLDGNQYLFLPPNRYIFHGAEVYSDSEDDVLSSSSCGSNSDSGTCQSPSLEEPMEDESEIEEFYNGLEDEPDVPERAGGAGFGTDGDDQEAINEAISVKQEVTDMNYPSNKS
Nature of the test: Trp mass spectrometry assay of SIRT1 activation (deacetylation of Ac-R-H-K-K(Ac)-W-NH2 peptide, OAADPR formation). It counts as biochemical. Particulars: Trp peptide 0.5 μM, 120 μM βNAD+, 10 nM SIRT1, 25 min, 25° C.; for Emax: 25 min, read-out: TRP MAX RESP (percent maximum fold activation relative to control = 100%). The essentials: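 10 nM His-tagged SIRT1 (E. coli expressed) with 0.5 μM Ac-RHKK(Ac)W-NH2 and 120 μM βNAD+, 25 min at 25° C, HEPES pH 7.5, […]; formic acid stop. OAADPR or deacetylated peptide measured by mass spectrometry; EC1.5 = concentration giving 150% activity versus DMSO control; maximum activation also reported.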

Regarding `C[C@@H](NC(=O)c1ccc2c(n1)N(C(=O)Nc1ccon1)[C@H]1CCCN2C1)C(F)(F)F` [Example 40, (9S)-N10-(isoxazol-3-yl)-N2-((R)-1,1,1-trifluoropropan-2-yl)-8,9-dihydro-6H-5,9-methanopyrido[2,3-b][1,4]diazocine-2,10(7H)-dicarboxamide], the Emax is at least 150% and the “TRP Activity (EC1.5, concentration of compound required to increase SIRT1 activity by 50% over control)” value is “A (EC1.5<1 μM)”.
In the same order, the values of `Cc1cc(-c2ccc3c(n2)N(C(=O)Nc2ccncn2)[C@H]2CCCN3C2)ccn1` [Example 12, (9S)-2-(2-methylpyridin-4-yl)-N-(pyrimidin-4-yl)-8,9-dihydro-6H-5,9-methanopyrido[2,3-b][1,4]diazocine-10(7H)-carboxamide] are at least 150% and “A (EC1.5<1 μM)”.
In the same order, the values of `O=C(Nc1cnc(OC[C@H](O)CO)nc1)N1c2nc(-c3cccc(C(F)(F)F)c3)c(Cl)cc2N2CCC[C@H]1C2` [Example 69, (9S)-3-chloro-N-(2-((R)-2,3-dihydroxypropoxy)pyrimidin-5-yl)-2-(3-(trifluoromethyl)phenyl)-8,9-dihydro-6H-5,9-methanopyrido[2,3-b][1,4]diazocine-10(7H)-carboxamide] are at least 150% and “A (EC1.5<1 μM)”.
In the same order, the values of `Cc1cc(-c2ccc3c(n2)N(C(=O)Nc2ccccn2)[C@H]2CCCN3C2)ccn1` [Example 4, (9S)-2-(2-methylpyridin-4-yl)-N-(pyridin-2-yl)-8,9-dihydro-6H-5,9-methanopyrido[2,3-b][1,4]diazocine-10(7H)-carboxamide] are at least 150% and “A (EC1.5<1 μM)”.
As to `O=C(Nc1nccc(OC[C@H](O)CO)n1)N1c2nc(-c3cccc(C(F)(F)F)c3)c(Cl)cc2N2CCC[C@H]1C2` [Example 78, (9S)-3-chloro-N-(4-((R)-2,3-dihydroxypropoxy)pyrimidin-2-yl)-2-(3-(trifluoromethyl)phenyl)-8,9-dihydro-6H-5,9-methanopyrido[2,3-b][1,4]diazocine-10(7H)-carboxamide], the Emax is at least 150% and the “TRP Activity (EC1.5, concentration of compound required to increase SIRT1 activity by 50% over control)” value was “A (EC1.5<1 μM)”.
`O=C(Nc1ccc(OC[C@@H](O)CO)nc1)N1c2nc(-c3cccc(C(F)(F)F)c3)c(Cl)cc2N2CCC[C@H]1C2` [Example 84, (9S)-3-chloro-N-(6-((S)-2,3-dihydroxypropoxy)pyridin-3-yl)-2-(3-(trifluoromethyl)phenyl)-8,9-dihydro-6H-5,9-methanopyrido[2,3-b][1,4]diazocine-10(7H)-carboxamide]: the Emax is at least 150% and the “TRP Activity (EC1.5, concentration of compound required to increase SIRT1 activity by 50% over control)” value was “A (EC1.5<1 μM)”.
In the same order, the values of `O=C(Nc1ccc(OC[C@H](O)CO)nc1)N1c2nc(-c3cccc(C(F)(F)F)c3)c(Cl)cc2N2CCC[C@H]1C2` [Example 79, (9S)-3-chloro-N-(6-((R)-2,3-dihydroxypropoxy)pyridin-3-yl)-2-(3-(trifluoromethyl)phenyl)-8,9-dihydro-6H-5,9-methanopyrido[2,3-b][1,4]diazocine-10(7H)-carboxamide] are at least 150% and “A (EC1.5<1 μM)”.
In the same order, the values of `Cc1cc(-c2ccc3c(n2)N(C(=O)Nc2cncc(F)c2)[C@H]2CCCN3C2)ccn1` [Example 5, (9S)-N-(5-fluoropyridin-3-yl)-2-(2-methylpyridin-4-yl)-8,9-dihydro-6H-5,9-methanopyrido[2,3-b][1,4]diazocine-10(7H)-carboxamide] are at least 150% and “A (EC1.5<1 μM)”.
For `O=C(Nc1cncnc1)N1c2nc(-c3ccnc(C(F)(F)F)c3)ccc2N2CCC[C@H]1C2` [Example 10, (9S)-N-(pyrimidin-5-yl)-2-(2-(trifluoromethyl)pyridin-4-yl)-8,9-dihydro-6H-5,9-methanopyrido[2,3-b][1,4]diazocine-10(7H)-carboxamide], the Emax is at least 150% and the “TRP Activity (EC1.5, concentration of compound required to increase SIRT1 activity by 50% over control)” value was “A (EC1.5<1 μM)”.
For `O=C(Nc1cncc(OC[C@@H](O)CO)c1)N1c2nc(-c3cccc(C(F)(F)F)c3)c(Cl)cc2N2CCC[C@H]1C2` [Example 80, (9S)-3-chloro-N-(5-((S)-2,3-dihydroxypropoxy)pyridin-3-yl)-2-(3-(trifluoromethyl)phenyl)-8,9-dihydro-6H-5,9-methanopyrido[2,3-b][1,4]diazocine-10(7H)-carboxamide], the Emax is at least 150% and the “TRP Activity (EC1.5, concentration of compound required to increase SIRT1 activity by 50% over control)” value is “A (EC1.5<1 μM)”.
Consider `O=C(NC1CC1)N1c2nc(-c3cccc(C(F)(F)F)c3)c(Cl)cc2N2CCC[C@H]1C2` [Example 71, (9S)-3-chloro-N-cyclopropyl-2-(3-(trifluoromethyl)phenyl)-8,9-dihydro-6H-5,9-methanopyrido[2,3-b][1,4]diazocine-10(7H)-carboxamide], for which the Emax is at least 150% and the “TRP Activity (EC1.5, concentration of compound required to increase SIRT1 activity by 50% over control)” value is listed as “A (EC1.5<1 μM)”.
In the same order, the values of `O=C(Nc1cccc(OC[C@@H](O)CO)n1)N1c2nc(-c3cccc(C(F)(F)F)c3)c(Cl)cc2N2CCC[C@H]1C2` [Example 64, (9S)-3-chloro-N-(6-((S)-2,3-dihydroxypropoxy)pyridin-2-yl)-2-(3-(trifluoromethyl)phenyl)-8,9-dihydro-6H-5,9-methanopyrido[2,3-b][1,4]diazocine-10(7H)-carboxamide] are at least 150% and “A (EC1.5<1 μM)”.
As to `O=C(NC1CC1)c1ccc2c(n1)N(C(=O)Nc1ccccn1)[C@H]1CCCN2C1` [Example 36, (9S)-N2-cyclopropyl-N10-(pyridin-2-yl)-8,9-dihydro-6H-5,9-methanopyrido[2,3-b][1,4]diazocine-2,10(7H)-dicarboxamide], the Emax is at least 150% and the “TRP Activity (EC1.5, concentration of compound required to increase SIRT1 activity by 50% over control)” value is “A (EC1.5<1 μM)”.
In the same order, the values of `O=C(Nc1ccc(OC[C@H](O)CO)cn1)N1c2nc(-c3cccc(C(F)(F)F)c3)c(Cl)cc2N2CCC[C@H]1C2` [Example 87, (9S)-3-chloro-N-(5-((R)-2,3-dihydroxypropoxy)pyridin-2-yl)-2-(3-(trifluoromethyl)phenyl)-8,9-dihydro-6H-5,9-methanopyrido[2,3-b][1,4]diazocine-10(7H)-carboxamide] are at least 150% and “A (EC1.5<1 μM)”.
As for `Cc1cc(-c2cc(C)c3c(n2)N(C(=O)Nc2cccnc2)[C@H]2CCCN3C2)ccn1` [Example 90, (9S)-4-methyl-2-(2-methylpyridin-4-yl)-N-(pyridin-3-yl)-8,9-dihydro-6H-5,9-methanopyrido[2,3-b][1,4]diazocine-10(7H)-carboxamide], the Emax is at least 150% and the “TRP Activity (EC1.5, concentration of compound required to increase SIRT1 activity by 50% over control)” value is “A (EC1.5<1 μM)”.
In the same order, the values of `O=C(Nc1ccccn1)N1c2nc(N3CCC(C(F)(F)F)C3)ccc2N2CCC[C@H]1C2` (single isomer, unassigned) [Example 8] are at least 150% and “B (EC1.5 1-25 μM)”.
In the same order, the values of `Cc1ccc2c(NC(=O)N3c4nc(C(=O)NC5CC5)ccc4N4CCC[C@H]3C4)n[nH]c2n1` [Example 42, (9S)-N2-cyclopropyl-N10-(6-methyl-1H-pyrazolo[3,4-b]pyridin-3-yl)-8,9-dihydro-6H-5,9-methanopyrido[2,3-b][1,4]diazocine-2,10(7H)-dicarboxamide] are at least 150% and “A (EC1.5<1 μM)”.
On to `CC(F)(F)CNC(=O)c1ccc2c(n1)N(C(=O)Nc1cc(OC[C@H](O)CO)ccn1)[C@H]1CCCN2C1` [Example 35, (9S)-N2-(2,2-difluoropropyl)-N10-(4-((R)-2,3-dihydroxypropoxy)pyridin-2-yl)-8,9-dihydro-6H-5,9-methanopyrido[2,3-b][1,4]diazocine-2,10(7H)-dicarboxamide], for which the Emax was at least 150% and the “TRP Activity (EC1.5, concentration of compound required to increase SIRT1 activity by 50% over control)” value is listed as “A (EC1.5<1 μM)”.
